Results taken from patent US20250281457A1, “TREATMENT OR PREVENTION OF DENGUE VIRAL INFECTION” (Janssen Pharmaceuticals, Inc., priority 2022, published 2025).
Like-named read-outs stand apart in the source and are kept apart here.

Assay: Effect of food on plasma pharmacokinetics after single oral dose of SF2a/b (Example 2)
Format: in vivo, human
Conditions: both sexes, human, plasma, oral, 800 mg; for Tmax: read-out: tmax, Median
Method: The effect of food on the pharmacokinetics (PK) of Compound (a) was assessed in healthy participants after a single oral dose of SF2a/b, described in Example 1, administered at different dose levels in a randomized single dose, 2-period crossover study. The effect of food on the PK of Compound (a) was determined at 3 different dose levels (50 mg, 200 mg, and 800 mg) for a standardized breakfast; at one dose level (800 mg) for a high-fat, high-calorie breakfast; at two dose levels (200 mg and 800 mg) for a low-fat, low-calorie breakfast, as well as for a low-fat, high-calorie breakfast. 124 healthy adult participants (male and female, 18 to 55 years of age) were enrolled in this study. The volunteers were divided in six panels, which were organized as follows: • Panel […]: • Treatment D: A single 800-mg dose (4×200-mg tablets) of Compound (a) SF2b in fasted conditions. • Treatment E: A single 800-mg dose (4×200-mg tablets) of Compound (a) SF2b in fed conditions (standardized breakfast). • Treatments D and E (treatment sequence group 1 [n=8]: DE; treatment sequence group 2 [n=8]: ED). Panel 4, n=14: • Treatment F: A single 200-mg dose (1×200-mg tablet) of Compound (a) SF2b in fasted conditions. • Treatment G: A single 200-mg dose (1×200-mg tablet) of Compound (a) SF2b, in fed conditions (standardized breakfast). • Treatments F and G (treatment sequence group 1 [n=7]: FG; treatment sequence group 2 [n=7]: GF). Panel […]: • Treatment H: A single 50-mg dose (1×50-mg tablet) of Compound (a) SF2a in fasted conditions. • Treatment I: A single 50-mg dose (1×50-mg tablet) of Compound (a) SF2a in fed conditions (standardized breakfast). • Treatments H and I (treatment sequence group 1 [n=7]: HI; treatment sequence group 2 [n=7]: IH). Panel 6 (n=16): • Treatment J: single 800-mg dose (4×200-mg tablets) of Compound (a) administered as SF2b in fasted conditions. • Treatment K: single 800-mg dose (4×200-mg tablets) of Compound (a) administered as SF2b in fed conditions (high-fat, high-calorie breakfast). • Treatments J and K (treatment sequence group 1 [n=8]: JK; treatment sequence group 2 [n=8]: KJ). Panel 7 (n=32): • Treatment L: single 800-mg dose (4×200-mg tablets) of Compound (a) administered as SF2b in fed conditions (low-fat, low-calorie breakfast). • Treatment M: single 800-mg dose (4×200-mg tablets) of Compound (a) administered as SF2b in fed conditions (low-fat, high-calorie breakfast). • Treatment L (n=16) or Treatment M (n=16). Panel 8 (n=32): • Treatment N: single 200-mg dose (1×200-mg tablet) of Compound (a) administered as SF2b in fed conditions (low-fat, low-calorie breakfast). • Treatment O: single 200-mg dose (1×200-mg tablet) of Compound (a) administered as SF2b in fed conditions (low-fat, high-calorie breakfast). • Treatment N (n=16) or Treatment O (n=16). Tablets were administered orally, together with approximately 240 mL of non-carbonated water, in fasted or fed conditions. […] On day 1 of all treatments in each panel, the participants had fasted overnight for at least 10 hours before study drug intake. Intake of water was not allowed from 2 hours before and until 2 hours after study drug intake, except for the water used for study drug intake and breakfast. In case of intake in fed conditions, study drug was administered within 10 minutes after completing a standardized breakfast (Treatments E, G, and I), or a high-fat, high-calorie breakfast (Treatment K), a low-fat, low-calorie breakfast (Treatments L and N), or a low-fat, high-calorie breakfast (Treatments M and O). For treatments E, G, and I a standardized breakfast was served, consisting of (or its equivalent) 4 slices of bread, 2 slices of ham or cheese, butter, jelly, and 1 or 2 cups (up to 355 mL) of decaffeinated coffee or tea with milk and/or sugar, if desired (containing approximately: fat: 21 g, carbohydrates: 67 g, proteins: 19 g; total calories: 533 kcal). For treatment K in a high-fat, high-calorie breakfast was served. […]

COc1cc(NC(C(=O)c2c[nH]c3ccc(OC(F)(F)F)cc23)c2ccc(Cl)cc2OC)cc(S(C)(=O)=O)c1 (stereo not drawn) [Compound (a)]
Cmax (800 mg SF2b, fed, high-fat, high-calorie breakfast, read-out: Cmax, Geometric LS Means Treatment K): 4050 ng/mL | AUC(0-t) (800 mg SF2b, fed, low-fat, high-calorie breakfast, read-out: AUClast, Geometric LS Means Treatment M): 227 µg·h/mL | AUC(0-inf) (800 mg SF2b, fed, low-fat, high-calorie breakfast, read-out: AUC∞, Geometric LS Means Treatment M): 237 µg·h/mL | Cmax (800 mg SF2b, fed, low-fat, high-calorie breakfast, read-out: Cmax, Geometric LS Means Treatment M): 2060 ng/mL | AUC(0-t) (800 mg SF2b, fed, low-fat, low-calorie breakfast, read-out: AUClast, Geometric LS Means Treatment L): 210 µg·h/mL | AUC(0-inf) (800 mg SF2b, fed, low-fat, low-calorie breakfast, read-out: AUC∞, Geometric LS Means Treatment L): 221 µg·h/mL | Cmax (800 mg SF2b, fed, low-fat, low-calorie breakfast, read-out: Cmax, Geometric LS Means Treatment L): 2060 ng/mL | AUC(0-t) (800 mg SF2b, fed, standardized breakfast (Tables 5F, 5H), read-out: AUClast, Geometric LS Means Treatment E): 347 µg·h/mL | AUC(0-inf) (800 mg SF2b, fed, standardized breakfast (Tables 5F, 5H), read-out: AUC∞, Geometric LS Means Treatment E): 341 µg·h/mL | Cmax (800 mg SF2b, fed, standardized breakfast (Tables 5F, 5H), read-out: Cmax, Geometric LS Means Treatment E): 3400 ng/mL | AUC(0-t) (800 mg SF2b, standardized breakfast, linear mixed effects model (Table 5A), read-out: AUClast, Geometric Mean Treatment E): 337 µg·h/mL | AUC(0-inf) (800 mg SF2b, standardized breakfast, linear mixed effects model (Table 5A), read-out: AUC∞, Geometric Mean Treatment E): 352 µg·h/mL | Cmax (800 mg SF2b, standardized breakfast, linear mixed effects model (Table 5A), read-out: Cmax, Geometric Mean Treatment E): 3380 ng/mL | AUC(0-t) (Treatment D: single 800 mg (SF2b), fasted, read-out: AUClast, Geo. Mean): 133 µg·h/mL | AUC(0-t) (Treatment D: single 800 mg (SF2b), fasted, read-out: AUClast, Mean): 149 µg·h/mL | AUC(0-t) (Treatment D: single 800 mg (SF2b), fasted, read-out: AUClast, Median): 138 µg·h/mL | AUC(0-inf) (Treatment D: single 800 mg (SF2b), fasted, read-out: AUC∞, Geo. Mean): 142 µg·h/mL | AUC(0-inf) (Treatment D: single 800 mg (SF2b), fasted, read-out: AUC∞, Mean): 160 µg·h/mL | AUC(0-inf) (Treatment D: single 800 mg (SF2b), fasted, read-out: AUC∞, Median): 144 µg·h/mL | Cmax (Treatment D: single 800 mg (SF2b), fasted, read-out: Cmax, Geo. Mean): 1150 ng/mL | Cmax (Treatment D: single 800 mg (SF2b), fasted, read-out: Cmax, Mean): 1300 ng/mL | Cmax (Treatment D: single 800 mg (SF2b), fasted, read-out: Cmax, Median): 1450 ng/mL | half-life (Treatment D: single 800 mg (SF2b), fasted, read-out: t1/2, term, Geo. Mean (converted)): 180 h | half-life (Treatment D: single 800 mg (SF2b), fasted, read-out: t1/2, term, Mean (converted)): 194 h | half-life (Treatment D: single 800 mg (SF2b), fasted, read-out: t1/2, term, Median (converted)): 179 h | Tmax (Treatment D: single 800 mg (SF2b), fasted): 8 h | AUC(0-t) (Treatment E: single 800 mg (SF2b), fed, standardized breakfast, read-out: AUClast, Geo. Mean): 340 µg·h/mL | AUC(0-t) (Treatment E: single 800 mg (SF2b), fed, standardized breakfast, read-out: AUClast, Mean): 357 µg·h/mL | AUC(0-t) (Treatment E: single 800 mg (SF2b), fed, standardized breakfast, read-out: AUClast, Median): 337 µg·h/mL | AUC(0-inf) (Treatment E: single 800 mg (SF2b), fed, standardized breakfast, read-out: AUC∞, Geo. Mean): 337 µg·h/mL | AUC(0-inf) (Treatment E: single 800 mg (SF2b), fed, standardized breakfast, read-out: AUC∞, Mean): 348 µg·h/mL | AUC(0-inf) (Treatment E: single 800 mg (SF2b), fed, standardized breakfast, read-out: AUC∞, Median): 345 µg·h/mL | Cmax (Treatment E: single 800 mg (SF2b), fed, standardized breakfast, read-out: Cmax, Geo. Mean): 3400 ng/mL | Cmax (Treatment E: single 800 mg (SF2b), fed, standardized breakfast, read-out: Cmax, Mean): 3500 ng/mL | Cmax (Treatment E: single 800 mg (SF2b), fed, standardized breakfast, read-out: Cmax, Median): 3510 ng/mL | half-life (Treatment E: single 800 mg (SF2b), fed, standardized breakfast, read-out: t1/2, term, Geo. Mean (converted)): 166 h | half-life (Treatment E: single 800 mg (SF2b), fed, standardized breakfast, read-out: t1/2, term, Mean (converted)): 176 h | half-life (Treatment E: single 800 mg (SF2b), fed, standardized breakfast, read-out: t1/2, term, Median (converted)): 150 h | Tmax (Treatment E: single 800 mg (SF2b), fed, standardized breakfast): 6 h
